{"source": "ChEMBL document CHEMBL1122303", "about": "“Synthesis and biological activity of a 2-bromoethylamine (mustard) derivative of hemicholinium-3 and hemicholinium-15” (1983)", "type_in_all_cases": "functional", "key": {"Rattus norvegicus [1]": {"organism": "Rattus norvegicus", "experiment": "In vitro inhibition of sodium-dependent high-affinity choline uptake activity (1 uM choline) at 1E-7 M concentration in the absence of thiosulfate"}, "Rattus norvegicus [2]": {"organism": "Rattus norvegicus", "experiment": "In vitro inhibition of sodium-dependent high-affinity choline uptake activity (1 uM choline) at 1E-7 M concentration in the presence of thiosulfate"}, "Rattus norvegicus [3]": {"organism": "Rattus norvegicus", "experiment": "In vitro inhibition of sodium-dependent high-affinity choline uptake activity (1 uM choline) at 1E-8 M concentration in the absence of thiosulfate"}, "Rattus norvegicus [4]": {"organism": "Rattus norvegicus", "experiment": "In vitro inhibition of sodium-dependent high-affinity choline uptake activity (1 uM choline) at 5E-8 M concentration in the absence of thiosulfate"}, "Rattus norvegicus [5]": {"organism": "Rattus norvegicus", "experiment": "In vitro inhibition of sodium-dependent high-affinity choline uptake activity (1 uM choline) at 5E-8 M concentration in the presence of thiosulfate"}, "Rattus norvegicus [6]": {"organism": "Rattus norvegicus", "experiment": "inhibition of sodium-dependent high-affinity choline uptake activity at 25 nM concentration for 15 min post wash pre-incubation time."}, "Rattus norvegicus [7]": {"organism": "Rattus norvegicus", "experiment": "inhibition of sodium-dependent high-affinity choline uptake activity at 25 nM concentration for 2.5 min post wash pre-incubation time."}, "Rattus norvegicus [8]": {"organism": "Rattus norvegicus", "experiment": "inhibition of sodium-dependent high-affinity choline uptake activity at 25 nM concentration for 7.5 min post wash pre-incubation time."}, "Rattus norvegicus [9]": {"organism": "Rattus norvegicus", "experiment": "Na-dependent high-affinity choline uptake at 25 nM concentration for 15 min post wash preincubation time."}, "Rattus norvegicus [10]": {"organism": "Rattus norvegicus", "experiment": "Na-dependent high-affinity choline uptake at 25 nM concentration for 2.5 min post wash pre-incubation time."}, "Rattus norvegicus [11]": {"organism": "Rattus norvegicus", "experiment": "Na-dependent high-affinity choline uptake at 25 nM concentration for 7.5 min post wash pre-incubation time."}, "Rattus norvegicus [12]": {"organism": "Rattus norvegicus", "experiment": "In vitro inhibition of sodium-dependent high-affinity choline uptake activity (1 uM choline) at 2E-5 M concentration in the absence of thiosulfate"}, "Rattus norvegicus [13]": {"organism": "Rattus norvegicus", "experiment": "In vitro inhibition of sodium-dependent high-affinity choline uptake activity (1 uM choline) at 2E-5 M concentration in the presence of thiosulfate"}}}
{"molecule": "OC1(c2ccc(-c3ccc(C4(O)CN(CCBr)CCO4)cc3)cc2)CN(CCBr)CCO1", "note": "(configuration not stated)", "values": [{"measurement": "Inhibition", "setting": "Rattus norvegicus [1]", "value": 100, "unit": "%"}, {"measurement": "Inhibition", "setting": "Rattus norvegicus [2]", "value": 0, "unit": "%"}, {"measurement": "Inhibition", "setting": "Rattus norvegicus [3]", "value": 84, "unit": "%"}, {"measurement": "Inhibition", "setting": "Rattus norvegicus [4]", "value": 100, "unit": "%"}, {"measurement": "Inhibition", "setting": "Rattus norvegicus [5]", "value": 0, "unit": "%"}, {"measurement": "Inhibition", "setting": "Rattus norvegicus [6]", "value": 34, "unit": "%"}, {"measurement": "Inhibition", "setting": "Rattus norvegicus [7]", "value": 31.2, "unit": "%"}, {"measurement": "Inhibition", "setting": "Rattus norvegicus [8]", "value": 32.9, "unit": "%"}, {"measurement": "Choline uptake", "setting": "Rattus norvegicus [9]", "value": "54.9 pM (4 min)-1 (mg of protein)-1"}, {"measurement": "Choline uptake", "setting": "Rattus norvegicus [10]", "value": "58.8 pM (4 min)-1 (mg of protein)-1"}, {"measurement": "Choline uptake", "setting": "Rattus norvegicus [11]", "value": "59.8 pM (4 min)-1 (mg of protein)-1"}]}
{"molecule": "C[N+]1(C)CCOC(O)(c2ccc(-c3ccc(C4(O)C[N+](C)(C)CCO4)cc3)cc2)C1", "note": "(configuration not stated) [HEMICHOLINIUM-3]", "values": [{"measurement": "Inhibition", "setting": "Rattus norvegicus [3]", "value": 35, "unit": "%"}, {"measurement": "Inhibition", "setting": "Rattus norvegicus [4]", "value": 83, "unit": "%"}, {"measurement": "Inhibition", "setting": "Rattus norvegicus [5]", "value": 85, "unit": "%"}]}
{"molecule": "C[N+]1(C)CCOC(O)(c2ccccc2)C1", "note": "(configuration not stated)", "values": [{"measurement": "Inhibition", "setting": "Rattus norvegicus [12]", "value": 58, "unit": "%"}]}
{"molecule": "OC1(c2ccccc2)CN(CCBr)CCO1", "note": "(configuration not stated)", "values": [{"measurement": "Inhibition", "setting": "Rattus norvegicus [12]", "value": 71, "unit": "%"}, {"measurement": "Inhibition", "setting": "Rattus norvegicus [13]", "value": 9, "unit": "%"}]}
